Columns and labels:
[1] = Differential scanning calorimetry (DSC) hazard determination (TDSC, QDSC; Category V Hazardous materials, self-reactive substances); assay type: physicochemical; settings: about 2 mg, SUS pressure-resistant cell, to 500° C. at 10° C./min, nitrogen, line through 2,4-dinitrotoluene and benzoyl peroxide, on or above = hazardous, FIG. 2
Source text: Differential scanning calorimetry (DSC) can be used as a method for determining the hazard of an amino acid active ester (Akiyoshi et al., Netsu Sokutei 2018, 45(4), 161-167.; Sakira Kaneko, Netsu Sokutei 1995, 22(1), 36-43.). DSC is an effective means for assessing the hazard of a self-reactive substance, because it can measure the reaction starting temperature (TDSC) and the reaction heat (QDSC) with a trace amount of sample. […] In Japan, DSC is used as a test to determine whether a chemical substance falls under the Category V Hazardous materials (self-reactive substances) under the Japanese Fire Service Act.
Examples of the test for determining whether a chemical substance falls under the Category V Hazardous materials (self-reactive substances) in the Japanese Fire Service Act include a method involving using 2,4-dinitrotoluene and benzoyl peroxide as reference compounds, plotting the reference points of QDSC and TDSC for each of the compounds and drawing a straight line connecting the two points as the hazard determination line.
The QDSC and TDSC values of 2,4-dinitrotoluene (Compound No. 115) and benzoyl peroxide (Compound No. 116) were taken from the following literature: DSC Data Collection for Reactive Substances (2) (RIIS-SD-89), https://www.jniosh.johas.go.jp/publication/houkoku/houkoku_2007_03_list.html.
The detailed procedure for differential scanning calorimetry (DSC) is as follows:
The amino acid active ester (about 2 mg), which had been sealed in a SUS pressure-resistant cell, was set in a heat flux type differential scanning calorimeter, and heated to 500° C. at 10° C./min in an atmosphere of nitrogen 50 mL/min. The sealing into the cell was carried out in atmospheric air, and a blank cell was used as a reference material. The value of indium (In) measured under the same conditions was used as a standard for correction.
In FIG. 2, the dotted line indicates the hazard determination line. […] The abscissa axis indicates the log(TDSC-25) value, and the ordinate axis indicates the log QDSC value. In FIG. 2, -L-Hph-DBE_HCl indicates the hydrochloride of 3,5-dinitrobenzyl (S)-2-amino-4-phenylbutanoate (Compound No. 114), Gly-DBE_HCl indicates the hydrochloride of 3,5-dinitrobenzyl glycinate (Compound No. 112), -L-Ile-DBE_HCl indicates the hydrochloride of 3,5-dinitrobenzyl L-isoleucinate (Compound No. 111), -L-W7N-DBE_HCl indicates the hydrochloride of 3,5-dinitrobenzyl (S)-2-amino-3-(1H-pyrrolo[2,3-b]pyridin-3-yl)propanoate (Compound No. 113), -L-Ile-DCPE_HCl indicates (2,6-dichloropyridin-4-yl)methyl L-isoleucinate (Compound No. 21), -L-W7N-TEE_HCl indicates 2,2,2-trifluoroethyl (S)-2-amino-3-(1H-pyrrolo[2,3-b]pyridin-3-yl)propanoate (Compound No. 81), and Gly-DCPE_HCl indicates (2,6-dichloropyridin-4-yl)methyl glycinate (Compound No. 99).

tRNA analog (microhelix) [2] = test: Aminoacylation of tRNA analog (microhelix) with flexizyme eFx, acid PAGE analysis; assay type: biochemical; settings: 5 mM substrate, 50 mM Hepes-K pH 7.5, 600 mM MgCl2, 20% DMSO, on ice overnight, FIG. 1-3, 1-4
Experimental: (§1) In the present embodiment, a tRNA was aminoacylated with the active ester synthesized in Example 1 as a substrate using a flexizyme. In order to conveniently confirm acylation with various amino acids, the acylation reaction was performed using, instead of an initiating tRNA (tRNA^Met), a microhelix corresponding to a short analog of the initiating tRNA and the solution after the reaction was subjected to polyacrylamide gel electrophoresis analysis under acidic conditions in order to confirm the aminoacylation efficiency. The mobility of the band derived from the microhelix is slow when it has been aminoacylated. The aminoacylation efficiency can be determined by comparing the intensity of the microhelix band to that of the acylated microhelix band.
The acylation reaction was carried out overnight on ice in a 50 mM Hepes-K buffer (pH 7.5) and 600 mM MgCl2, with a 25 µM flexizyme (eFx), a 25 µM tRNA analog (microhelix) and 5 mM substrate added to 20% DMSO. […]
(§2) The detailed procedure was as follows: 4 μL of a 500 mM Hepes-K buffer (pH 7.5), 4 μL of a 250 µM flexizyme (eFx) and 4 μL of a 250 µM tRNA analog were added to 12 μL of ultrapure water, and the mixture was heated at 95° C. for 3 minutes, and allowed to cool at room temperature for 5 minutes. […] This solution was analyzed with 20% modified PAGE (50 mM sodium acetate, 6 M urea) under acidic conditions.

tRNA analog (microhelix) [3] = test: Aminoacylation of tRNA analog (microhelix) with flexizyme dFx, acid PAGE analysis; assay type: biochemical; settings: 5 mM substrate, 50 mM Hepes-K pH 7.5, 50 mM MgCl2, 20% DMSO, on ice overnight, FIG. 1-1, 1-2
Experimental: as §1
The acylation reaction was carried out overnight on ice in a 50 mM Hepes-K buffer (pH 7.5) and 50 mM MgCl2, with a 25 µM flexizyme (dFx), a 25 μM tRNA analog (microhelix) and a 5 mM substrate added to 20% DMSO. […]
as §2, with “1” for “4”, “(dFx)” for “(eFx)”, “3” for “12”, “2” for “3”

Structure (SMILES) | position of log QDSC vs log(TDSC-25) plot relative to hazard determination line [1] | also measured
NCC(=O)OCc1cc([N+](=O)[O-])cc([N+](=O)[O-])c1 [Gly-DBE_HCl, 3,5-dinitrobenzyl glycinate] | above the hazard determination line | –
N[C@@H](CCc1ccccc1)C(=O)OCC(F)(F)F [Compound No. 47, 2,2,2-trifluoroethyl (S)-2-amino-4-phenylbutanoate] | – | acylation of tRNA analog by the flexizyme (aminoacylation efficiency) (tRNA analog (microhelix) [2]): efficiently acylated
CC[C@H](C)[C@H](N)C(=O)OCc1cc(Cl)nc(Cl)c1 [Compound No. 21, (2,6-dichloropyridin-4-yl)methyl L-isoleucinate] | – | acylation of tRNA analog by the flexizyme (aminoacylation efficiency) (tRNA analog (microhelix) [3]): efficiently acylated
N[C@@H](CCc1ccccc1)C(=O)OCc1cc([N+](=O)[O-])cc([N+](=O)[O-])c1 [L-Hph-DBE_HCl, 3,5-dinitrobenzyl (S)-2-amino-4-phenylbutanoate] | above the hazard determination line | –
Cl.Cl.N[C@@H](Cc1c[nH]c2ncccc12)C(=O)OCC(F)(F)F [L-W7N-TEE_HCl, 2,2,2-Trifluoroethyl (S)-2-amino-3-(1H-pyrrolo[2,3-b]pyridin-3-yl)propanoate dihydrochloride] | below the hazard determination line | –
Cl.NCC(=O)OCc1cc(Cl)nc(Cl)c1 [Gly-DCPE_HCl, (2,6-Dichloropyridin-4-yl)methyl glycinate hydrochloride] | below the hazard determination line | –
CC[C@H](C)[C@H](N)C(=O)OCc1cc(Cl)nc(Cl)c1.Cl [L-Ile-DCPE_HCl, (2,6-Dichloropyridin-4-yl)methyl L-isoleucinate hydrochloride] | below the hazard determination line | –
N[C@@H](Cc1c[nH]c2ncccc12)C(=O)OCc1cc([N+](=O)[O-])cc([N+](=O)[O-])c1 [L-W7N-DBE_HCl, 3,5-dinitrobenzyl (S)-2-amino-3-(1H-pyrrolo[2,3-b]pyridin-3-yl)propanoate] | above the hazard determination line | –
CC[C@H](C)[C@H](N)C(=O)OCc1cc([N+](=O)[O-])cc([N+](=O)[O-])c1 [L-Ile-DBE_HCl, 3,5-dinitrobenzyl L-isoleucinate] | above the hazard determination line | –
NCC(=O)OCc1cc(Cl)nc(Cl)c1 [Compound No. 99, (2,6-dichloropyridin-4-yl)methyl glycinate] | – | acylation of tRNA analog by the flexizyme (aminoacylation efficiency) (tRNA analog (microhelix) [3]): efficiently acylated
